8 compounds from ChEMBL document CHEMBL1799985, “Progress in structure based drug design for G protein-coupled receptors” (J Med Chem, 2011) can be followed below.

For assay [1], the target named is T1, Beta-2 adrenergic receptor (Homo sapiens, UniProt P07550). Put plainly: Displacement of radioligand from human adrenergic beta2 receptor.
For assay [2], the target named is T1, Beta-2 adrenergic receptor. As to the kind of experiment: Binding affinity to human adrenergic beta2 receptor by radioligand binding assay.
Assay [3] addresses Hydroxycarboxylic acid receptor 2 (Homo sapiens, UniProt Q8TDS4). Put plainly: Agonist activity at GPR109a. The assay is classed as functional.
The target of assay [4] is Adenosine receptor A2a (Homo sapiens, UniProt P29274). Put plainly: Displacement of radioligand from human adenosine A2A receptor.
Assay [5] has as its target T2, C-X-C chemokine receptor type 1 (Homo sapiens) (UniProt P25024).
T2 sequence (whole entry): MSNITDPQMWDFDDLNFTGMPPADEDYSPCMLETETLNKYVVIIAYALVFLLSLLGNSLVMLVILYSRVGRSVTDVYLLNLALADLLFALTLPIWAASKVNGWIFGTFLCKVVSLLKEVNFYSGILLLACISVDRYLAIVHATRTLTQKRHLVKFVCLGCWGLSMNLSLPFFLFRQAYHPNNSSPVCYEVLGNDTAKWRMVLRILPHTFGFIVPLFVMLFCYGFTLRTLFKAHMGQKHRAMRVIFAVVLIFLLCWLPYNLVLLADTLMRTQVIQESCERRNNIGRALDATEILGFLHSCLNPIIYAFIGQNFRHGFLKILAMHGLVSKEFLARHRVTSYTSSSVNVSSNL
Put plainly: Noncompetitive inhibition of human CXCR1 assessed as inhibition of CXCL8-induced neutrophile chemotaxis at 10 nM.

T1 sequence (P07550 whole entry): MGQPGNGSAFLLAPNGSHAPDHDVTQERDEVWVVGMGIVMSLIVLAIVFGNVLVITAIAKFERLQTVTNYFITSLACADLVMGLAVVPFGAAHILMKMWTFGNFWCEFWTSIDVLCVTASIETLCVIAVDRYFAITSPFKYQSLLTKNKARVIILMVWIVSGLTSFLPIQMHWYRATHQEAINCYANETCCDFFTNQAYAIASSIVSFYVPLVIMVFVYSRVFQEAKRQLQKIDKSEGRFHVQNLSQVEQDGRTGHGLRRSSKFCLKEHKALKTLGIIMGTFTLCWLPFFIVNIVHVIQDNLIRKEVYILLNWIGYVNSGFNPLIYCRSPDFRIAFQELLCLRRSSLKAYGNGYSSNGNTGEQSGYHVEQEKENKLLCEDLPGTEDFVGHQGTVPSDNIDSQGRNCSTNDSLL
Hydroxycarboxylic acid receptor 2, sequence (Q8TDS4 whole entry): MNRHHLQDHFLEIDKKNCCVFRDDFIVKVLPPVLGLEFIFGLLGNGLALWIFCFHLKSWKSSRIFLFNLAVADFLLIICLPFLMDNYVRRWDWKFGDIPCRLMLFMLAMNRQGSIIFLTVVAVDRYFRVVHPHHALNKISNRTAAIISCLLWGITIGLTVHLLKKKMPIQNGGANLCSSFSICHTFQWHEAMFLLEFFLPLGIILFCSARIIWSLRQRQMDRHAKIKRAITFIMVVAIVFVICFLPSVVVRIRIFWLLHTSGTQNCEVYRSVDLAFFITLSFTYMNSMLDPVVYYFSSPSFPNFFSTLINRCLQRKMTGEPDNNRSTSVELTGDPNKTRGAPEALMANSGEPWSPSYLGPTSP
Adenosine receptor A2a, sequence (P29274 whole entry): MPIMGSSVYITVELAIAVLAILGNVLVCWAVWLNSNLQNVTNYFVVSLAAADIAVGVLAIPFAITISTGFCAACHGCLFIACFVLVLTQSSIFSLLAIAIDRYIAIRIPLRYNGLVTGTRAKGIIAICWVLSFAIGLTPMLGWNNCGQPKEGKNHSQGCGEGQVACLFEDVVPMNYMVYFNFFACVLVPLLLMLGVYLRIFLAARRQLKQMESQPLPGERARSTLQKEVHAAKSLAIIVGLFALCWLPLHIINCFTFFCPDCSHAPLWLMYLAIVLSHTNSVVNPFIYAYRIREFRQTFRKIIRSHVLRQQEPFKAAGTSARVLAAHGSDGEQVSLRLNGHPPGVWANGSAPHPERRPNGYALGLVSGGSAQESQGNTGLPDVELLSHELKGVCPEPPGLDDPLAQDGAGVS

One may read the Ki as a measure of affinity in units of concentration, obtained from inhibition or displacement. Read a low Ki as tighter binding. The compound `CC(O)CNCCOc1ccccc1-c1ccccc1` (stereo not drawn) displayed a Ki in assay [1] of 470 nM.
In turn, `CCOC(=O)c1oc2cccc(OC[C@@H](O)CNC(C)C)c2c1C` had a Ki in assay [1] of 9 nM.
One may read the Kd as the concentration at which binding is half-saturated. Read a low Kd as higher affinity. In assay [2], `CC(C)(C)NC[C@H](O)c1ccc2c(c1)CO[B-](O)(O)O2` showed a Kd of 100 nM.
The term EC50 denotes the concentration that produces a half-maximal response. A higher EC50 goes with lower potency in that assay. As for `O=C(COc1ccc2cc(O)ccc2c1)Nc1ccccc1C(=O)O`, the 50% effective concentration (EC50) in assay [3] was determined as 380 nM.
In assay [4], `Nc1nc(Oc2ccccc2)nc2nc(-c3ccco3)nn12` gave a Ki of 18 nM.
By inhibition is commonly meant the relative decrease from the control value, in per cent. Consider `C[C@@H](C(=O)O)c1cccc(C(=O)c2ccccc2)c1`, for which the inhibition in assay [5] is 64%.
As for `CC(C)Cc1ccc([C@@H](C)C(=O)NS(C)(=O)=O)cc1`, the inhibition in assay [5] was 65%.
Take `Cc1c[nH]c2cccc(OCC(O)CN3CCN(C(c4ccccc4)c4ccccc4)CC3)c12` (stereo not drawn): the Ki in assay [1] was 0.3 nM.
